# Experimental data published in ChEMBL document CHEMBL3639112, “Modulators of calcium release-activated calcium channel and methods for treatment of non-small cell lung cancer” (2015).
# Biological target: Calcium release-activated calcium channel protein 1 (Homo sapiens, UniProt Q96D31)
# Assay: Inhibition Assay: Inhibition of CRAC channels was determined following thapsigargin (Sigma, Cat # T9033) induced endoplasmic calcium release in Jurkat cells. (see Yasurio Yonetoky et. al Bio. & Med. Chem. 14 (2006) 4750-4760). Cells were centrifuged and resuspended in equal volumes f Ca2+ and Mg2+ free Hanks buffer and Fluo-8 NW dye (ABD Bioquest, Inc., Sunnyvale, Calif.) loading solution at 2x10^5 cells/100 ul/well in 96-well black plate. Plate is incubated at 37 C./5% CO2 […] followed by further […] at room temperature. Test compounds (DMSO stocks diluted in Ca2+ and Mg2+ free Hanks buffer) at desired concentrations were added to the wells and […]. Thapsigargin (1 uM final concentration) was added to the wells and incubated for 15 min to inhibit the Sarco-endoplasmic reticulum Ca2+ ATPase pump thereby depleting endoplasmic calcium and raising cytosolic calcium concentrations. Store-operated calcium entry was initiated by adding extracellular Ca2+.
# Assay type: cell-based
# Chain of Calcium release-activated calcium channel protein 1 (Q96D31 whole entry): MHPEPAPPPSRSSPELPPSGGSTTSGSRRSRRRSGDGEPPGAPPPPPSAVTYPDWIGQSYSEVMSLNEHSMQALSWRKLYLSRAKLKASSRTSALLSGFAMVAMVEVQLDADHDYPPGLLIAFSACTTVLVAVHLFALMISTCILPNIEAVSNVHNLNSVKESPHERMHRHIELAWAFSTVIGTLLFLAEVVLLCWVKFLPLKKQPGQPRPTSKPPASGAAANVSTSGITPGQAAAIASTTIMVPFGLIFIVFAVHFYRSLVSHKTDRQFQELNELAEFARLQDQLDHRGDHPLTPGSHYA
row,Compound,IC50 [µM]
1,O=C(Nc1ccc(-n2nc(C(F)(F)F)cc2C2CC2)cc1)c1ccc2ncccc2c1,0.0861
2,O=C(Cc1ccc2ncccc2c1)Nc1ccc(-n2nc(C3CC3)cc2C2CC2)cc1,0.147
